Key:
[1] = Sensory evaluation of sweetness intensity in sucrose-containing cafe au lait (Experimental Examples 6-10); details: added alone, 3.0 points or more
Description: The starting materials were mixed according to the blending rate in Table 6 to prepare a cafe au lait containing sucrose (hereinafter referred to as “negative control cafe au lait”).
A sensory evaluation of the presence or absence of sweetness intensity enhancement was performed for each sample by a panel of four experts according to the following evaluation criteria.
(§1) Sweetness intensity was evaluated by 0.0 to 10.0 point based on the following reference samples (negative control (hereinafter referred to as NC) (0.0 point); reference 1 (hereinafter referred to as R1) (5.0 points); reference 2 (hereinafter referred to as R2) (10.0 points)). The average score (rounded to two decimal places) of each expert panelist was calculated. An average score of 3.0 points or more was considered to be functional. • NC (0.0 point): cafe au lait prepared by mixing starting materials at the blending rate in Table 6 (i.e., negative control cafe au lait). • R1 (5.0 points): drink with 0.15 g of sucrose added per 99.85 g of NC. • R2 (10.0 points): drink with 0.30 g of sucrose added per 99.70 g of NC.
A sensory evaluation of sweetness intensity was performed for each sample by a panel of four experts according to the same evaluation criteria as in Experimental Example 6.
A sensory evaluation of the presence or absence of sweetness intensity enhancement was performed for each sample by a panel of four experts according to the same evaluation criteria as in Experimental Example 6.

[2] = Sensory evaluation of sweetness intensity in RebA solution (Experimental Example 12); details: added alone, 3.0 points or more
Description: A negative control RebA solution (0.073 wt % […] solution) was prepared by dissolving RebA in filtered water.
A sensory evaluation of sweetness intensity was performed for each sample by a panel of three experts according to the following evaluation criteria.
Sweetness intensity was evaluated by 0.0 to 10.0 points based on the following reference samples (negative control (hereinafter referred to as NC) (0.0 point); reference 1 (hereinafter referred to as R1) (5.0 points); reference 2 (hereinafter referred to as R2) (10.0 points)). The average score (rounded to two decimal places) of each expert panelist was calculated. An average score of 3.0 points or more was considered to be functional. • NC (0.0 point): 0.073 wt % RebA solution (solvent: filtered water) • R1 (5.0 points): 0.077 wt % RebA solution (solvent: filtered water) • R2 (10.0 points): 0.080 wt % RebA solution (solvent: filtered water)

[3] = Sensory evaluation of sweetness intensity in black tea au lait (Experimental Example 15); details: added alone; for concentration at which a sweetness-enhancing effect was confirmed: 3.0 points or more
Description: (§2) Instant black tea au lait powder (product name: Blendy (registered trademark) Stick Black Tea Au Lait (Ajinomoto AGF, Inc.)) was prepared according to the instructions, and then diluted 1.2 times with filtered water to prepare negative control black tea au lait.
(§3) When the carbohydrate content of Blendy (registered trademark) Stick Black Tea Au Lait is calculated as the total sucrose content, the negative control black tea au lait contains 5.2 g of sucrose per 100 g.
(§4) A sensory evaluation of sweetness intensity and black tea au lait flavor intensity was performed for each sample by a panel of three experts according to the following evaluation criteria.
(§5) Sweetness intensity and black tea au lait flavor intensity were each evaluated by 0.0 to 10.0 point based on the following reference samples (negative control (hereinafter referred to as NC) (0.0 point); reference 1 (hereinafter referred to as R1) (5.0 points); reference 2 (hereinafter referred to as R2) (10.0 points)). The average score (rounded to two decimal places) of each expert panelist was calculated. An average score of 3.0 points or more was considered to be functional. • NC (0.0 point): black tea au lait (product name: Black Tea Au Lait, Ajinomoto AGF, Inc.) prepared according to the instructions, and then diluted 1.2 times with filtered water (i.e., negative control black tea au lait). • R1 (5.0 points): with 0.26 g of sugar added per 99.74 g of NC. • R2 (10.0 points): with 0.52 g of sugar added per 99.48 g of NC.

[4] = Sensory evaluation of black tea au lait flavor intensity (Experimental Example 15); details: added alone; for black tea au lait flavor-enhancing effect (in words): 0.0001-1000 ppb
Description: as §2, §3, §4, §5

[5] = Sensory evaluation of cafe au lait flavor intensity in sucrose-containing cafe au lait (Experimental Example 16); details: added alone, 3.0 points or more
Description: Negative control cafe au lait was prepared by the same method as in Experimental Example 6.
A sensory evaluation of the presence or absence of cafe au lait flavor intensity enhancement was performed for each sample by a panel of four experts according to the following evaluation criteria.
as §1, with “Cafe au lait flavor” for “Sweetness”, “6 in Experimental Example 6” for “6”, “0.3” for “0.30”

[6] = Sensory evaluation of sweetness intensity in RebM solution (Experimental Examples 20-21); details: added alone, 3.0 points or more
Description: A negative control RebM solution (0.063 wt % RebM solution) was prepared by dissolving RebM in filtered water.
A sensory evaluation of sweetness intensity was performed for each sample by a panel of four experts according to the following evaluation criteria.
Sweetness intensity was evaluated by 0.0 to 10.0 points based on the following reference samples (negative control (hereinafter referred to as NC) (0.0 point); reference 1 (hereinafter referred to as R1) (3.0 points), reference 2 (hereinafter referred to as R2) (5.0 points); reference 3 (hereinafter referred to as R3) (10.0 points)). The average score (rounded to two decimal places) of each expert panelist was calculated. An average score of 3.0 points or more was considered to be functional. • NC (0.0 point): 0.063 wt % RebM solution (solvent: filtered water) • R1 (3.0 points): 0.063 wt % RebM solution (solvent: filtered water)+dodecanoic acid (1 ppb) • R2 (5.0 points): 0.066 wt % RebM solution (solvent: filtered water) • R3 (10.0 points): 0.069 wt % RebM solution (solvent: filtered water)
A sensory evaluation of sweetness intensity was performed for each sample by a panel of four experts according to the same evaluation criteria as in Experimental Example 20.

Structure (SMILES)	concentration at which a sweetness-enhancing effect was confirmed [1]	concentration at which a sweetness-enhancing effect was confirmed [2]	concentration at which a sweetness-enhancing effect was confirmed [3]	concentration at which a black tea au lait flavor-enhancing effect was confirmed ([4]; 3.0 points or more)	concentration at which a cafe au lait flavor-enhancing effect was confirmed [5]	concentration at which a sweetness-enhancing effect was confirmed [6]	sweetness-enhancing effect (in words) ([3]; 0.0001-1000 ppb)	black tea au lait flavor-enhancing effect (in words) [4]
CC(C)CCC(=O)O [4-methylpentanoic acid]	≥ 0.1 ppb	100 ppb	≥ 100 ppb	≥ 1 ppb	≥ 1 ppb	100 ppb		
CCCCCCCCCC(=O)O [decanoic acid]	≥ 1 ppb	10 ppb			≥ 0.01 ppb	10 ppb	concentration-dependent sweetness-enhancing effect	concentration-dependent black tea au lait flavor-enhancing effect
CC1=C(O)C(=O)CC1 [cyclotene]	≥ 0.1 ppb	10 ppb	≥ 1 ppb		≥ 0.1 ppb	10 ppb		concentration-dependent black tea au lait flavor-enhancing effect
